# Measured values published in patent publication US20150174158A1, “[…] NITRIC OXIDE FOR TREATING RESPIRATORY DISEASES” (Advanced Inhalation Therapies (AIT) Ltd., priority 2012, published 2015).
# Where two headings read alike, the source gives them in different places.
# Assays:
# [1] = system: human respiratory syncytial virus (rgRSV30); assay: RSV plaque assay after 30 min exposure to 160 ppm gNO; assay type: cell-based; settings: single 30 min exposure to 160 ppm gNO; starting 500 PFU
# Protocol: The efficacy of treating viral infection by respiratory syncytial virus by the methods presented herein was tested by exposure for 30 minutes of human respiratory syncytial virus (rgRSV30) to a gas mixture containing 160 ppm nitric oxide, using standard plaque assay as described hereinabove.
# FIGS. 3A-D present the data obtained in the experiment using tissue culture samples harboring human rgRSV30, coupled to a green fluorescent protein, wherein the control experiment the samples were exposed to a ambient air (data not shown), and the tested samples having a starting viral level of 2000 PFU (FIG. 3A), 1000 PFU (FIG. 3B) and 500 PFU (FIG. 3C), were exposed to 160 ppm gNO for 30 minutes, whereas FIG. 3D presents a comparative bar plot comparing the control to test results.
# Acinetobacter sp. = settings: 200 ppm gNO; saline; cited from earlier work
# Klebsiella sp. #3 = settings: 200 ppm gNO; saline; cited from earlier work
# S. aureus (Clinical) = settings: 200 ppm gNO; saline; cited from earlier work
# [2] = system: P. aeruginosa and S. aureus; settings: cited from earlier work
# Klebsiella sp. #1 = settings: 200 ppm gNO; saline; cited from earlier work
# [3] = system: bovine respiratory disease; settings: intermittent gNO; cited from earlier work
# [4] = system: influenza A/victoria/H3N2; settings: 160 ppm gNO, cited from earlier work
# E. Coli = settings: 200 ppm gNO; saline; cited from earlier work
# [5] = Phase I safety study: hematology, blood chemistry, coagulation; assay type: in vivo, human; settings: baseline 0.15 (SD=0.12); SD=0.19; p=0.104
# Protocol: After obtaining informed consent, treatment was initiated within 5 days of enrollment. Subjects were housed in a hospital ward and received 160 ppm gNO for 30 minutes every four hours (Q4h), five times a day, for five consecutive days by inhalation. Subjects returned for follow-up evaluations 3, 7 and 21 days after the final gNO administration. Subject safety was determined by monitoring vital signs, methemoglobin levels, lung function, blood chemistry, hematology, prothrombin time, inflammatory cytokine/chemokines levels and endothelial activation. These parameters were compared to baseline and at various time-points during and after gNO administration.
# Hematological assessment included a complete blood count and differentials (hemoglobin, hematocrit, red blood cell count, white blood cell count, white blood cell differential, and platelet count) were obtained in order to monitor blood chemistry, hematology and inflammation measurements. […] The effect of gNO on coagulation was determined by the prothrombin time (PT) and its derived measures of prothrombin ratio (PR) and international normalized ratio (INR). […] Plasma cytokine levels were assessed using the human inflammation cytokine bead array kit (BD Bioscience, Canada). Plasma levels of angiopoietin Ang-1 and Ang-2 were determined by ELISA (R&D Systems, USA).
# [6] = cited from earlier work; for mortality: 6 h/day, groups of 10 rats
smiles,measurement,setting,value
"[N]=O [gNO, nitric oxide]",viral viability,[1],substantially nullified
same,LD100,Acinetobacter sp.,6 h
same,Latent Period,Acinetobacter sp.,4 h
same,−2.5 Log10,Acinetobacter sp.,5 hours
same,LD100,Klebsiella sp. #3,6 h
same,Latent Period,Klebsiella sp. #3,3 h
same,−2.5 Log10,Klebsiella sp. #3,5.1 hours
same,LD100,S. aureus (Clinical),4 h
same,Latent Period,S. aureus (Clinical),3 h
same,−2.5 Log10,S. aureus (Clinical),3.7 hours
same,survival (downward bactericidal trend),"[2]; 50-160 ppm gNO vs medical air, agar plates",5-10%
same,time required to achieve >90% reduction of colony formation,[2]; gNO greater than 120 ppm,8 to 12 h
same,reduction of colony formation,"[2]; levels of gNO greater than 120 ppm, agar plates",greater than 90%
same,LD100,Klebsiella sp. #1,6 h
same,Latent Period,Klebsiella sp. #1,3 h
same,−2.5 Log10,Klebsiella sp. #1,3.5 hours
same,clinical symptoms of bovine respiratory disease,[3],decrease the clinical symptoms
same,infectivity (plaque formation),[4],capable of reducing the infectivity
same,"anti-viral effect, intermittent vs single exposure",[4]; three 30 minute treatments Q4h vs one 30 minute dose,more evident in the intermittent form of exposure
same,LD100,E. Coli,5 h
same,Latent Period,E. Coli,3 h
same,−2.5 Log10,E. Coli,4.2 hours
same,"eosinophil cell numbers, end of study",[5],0.19 giga/L
same,animals that died during the first 1-2 days,"[6]; 300 ppm gNO, group of 10 rats",Six
same,mortality,[6]; 400 ppm gNO,all of the animals died on the first day
same,mortality,[6]; 500 ppm gNO,all of the animals died on the first day
same,MetHb level,[6]; 500 ppm gNO,67 percents
